In patent US20190183910A1, “ENHANCING DNA REPAIR AND PREVENTING AGING AND ITS CONSEQUENCES IN REPRODUCTIVE AND OTHER CELLS” (NEW YORK MEDICAL COLLEGE, priority 2016, published 2019):

Tested on: mouse sperm
Assay: Neutral comet assay on mouse sperm
Assay type: cell-based
Settings: for percent tail DNA, neutral comet: mouse sperm, n=9, mean±SEM
Method: Treatment was performed with genotoxic stress (1 mM H2O2), S1P (200 μM), and S1P with genotoxic stress and control in culture for one hour. Also, the use of an ATM inhibitor was utilized (10 μM) (KU-55593, Abcam) (Li et al., 2014). We assessed DNA damage, apoptosis, and chromatin integrity. We also studied the DNA DSB repair gene expression by qRT-PCR in sperm lysates.
Slides were prepared 48 hours prior to experimentation by coating normal glass microscope slides with 500 μl normal melting point agar (NMPA, 0.5% w/v in PBS) solution and left to dry at room temperature for no less than 48 hours. Once samples were obtained, 10 μl of mouse sperm suspension was mixed with 90 μl of 0.5% low melting point agar (LMPA). Then, this 100 μl solution was added to the NMPA-coated slides. Coverslips were added and slides were placed on a metallic tray on ice and in the dark for 5 minutes. The cover slips were then removed and another layer of LMPA was added. Cover slips were subsequently replaced before the LMPA hardened. Slides were then kept in the dark on ice again for another 5 minutes. After ten minutes, the cover slips were removed and slides were placed in staining jars containing ice cold lysing solution (2.5 M NaCl, 100 mM EDTA, sodium N-laurylsacrosinate [SLS]. [1% w/v] and 10 mM Trizma base pH10, and 1% Triton-X-100 and 10% DMSO [immediately adding before use]) for 1 hour at 4° C. in a dark place.
After this lysis step, the slides were washed three times for 5 minutes with the cold electrophoresis buffer (0.089 M Tris base, 0.089 M boric acid and 2 mM EDTA [pH 8.3]), and then placed flatly in the electrophoresis tank face up for 30 minutes. This incubation period was used to achieve the unwinding of the DNA. Electrophoresis was then performed at 18 V for 60 minutes. After this, slides were washed twice in PBS for 5 minutes each. Before analysis could occur, the sperm within the slides needed to be fixed by two 10 minute washes in ethanol, and then air drying at room temperature. Ethidium bromide (50 μl at 10 μg/ml in water) was then added on the slide, and sealed with a cover slip. Slides were kept moist, wrapped in aluminum foil to prevent light exposure, and stored at 4° C. until analysis (Smart et al., 2008).
Slides from both alkaline and neutral comets were imaged by fluorescence microscopy using a Nikon OPTIPHOT microscope. ImageJ was used for comet assay analysis, which calculated tail length, tail moment, and % of DNA in the tail. […] The comets were “on scale” for the calculations to be correct (the brightest pixels of interest were below 255 on an 8-bit scale). […] To analyze the slides, an oval around the sperm head was drawn and calculated and then an oval around the sperm tail was drawn and calculated. […] It was calculated as the Pythagorean distance between two points. […]

CCCCCCCCCCCCC/C=C/[C@@H](O)[C@@H](N)COP(=O)(O)O [S1P, sphingosine 1 phosphate]
DNA damage, neutral comet (S1P-treated mouse sperm with ATM inhibitor): no significant difference | percent tail DNA, neutral comet (S1P alone, without ATM inhibitor): 18.5±0.59% | percent tail DNA, neutral comet (S1P with H2O2, without ATM inhibitor): 18.8±0.73%
